Literature values, collected in US20040220281A1, “Treatment of hormone-refractory prostate cancer” (priority 2003, published 2004).
Where two headings read alike, the source gives them in different places.

What was measured:
[1] = biological target: p-glycoprotein (P-gp) pump (Homo sapiens, UniProt P08183)
[2] = in vitro
CYP 3A4 = CYP 3A4 (Homo sapiens, UniProt P08684)
[3] = in vivo

p-glycoprotein (P-gp) pump, sequence (P08183 whole entry): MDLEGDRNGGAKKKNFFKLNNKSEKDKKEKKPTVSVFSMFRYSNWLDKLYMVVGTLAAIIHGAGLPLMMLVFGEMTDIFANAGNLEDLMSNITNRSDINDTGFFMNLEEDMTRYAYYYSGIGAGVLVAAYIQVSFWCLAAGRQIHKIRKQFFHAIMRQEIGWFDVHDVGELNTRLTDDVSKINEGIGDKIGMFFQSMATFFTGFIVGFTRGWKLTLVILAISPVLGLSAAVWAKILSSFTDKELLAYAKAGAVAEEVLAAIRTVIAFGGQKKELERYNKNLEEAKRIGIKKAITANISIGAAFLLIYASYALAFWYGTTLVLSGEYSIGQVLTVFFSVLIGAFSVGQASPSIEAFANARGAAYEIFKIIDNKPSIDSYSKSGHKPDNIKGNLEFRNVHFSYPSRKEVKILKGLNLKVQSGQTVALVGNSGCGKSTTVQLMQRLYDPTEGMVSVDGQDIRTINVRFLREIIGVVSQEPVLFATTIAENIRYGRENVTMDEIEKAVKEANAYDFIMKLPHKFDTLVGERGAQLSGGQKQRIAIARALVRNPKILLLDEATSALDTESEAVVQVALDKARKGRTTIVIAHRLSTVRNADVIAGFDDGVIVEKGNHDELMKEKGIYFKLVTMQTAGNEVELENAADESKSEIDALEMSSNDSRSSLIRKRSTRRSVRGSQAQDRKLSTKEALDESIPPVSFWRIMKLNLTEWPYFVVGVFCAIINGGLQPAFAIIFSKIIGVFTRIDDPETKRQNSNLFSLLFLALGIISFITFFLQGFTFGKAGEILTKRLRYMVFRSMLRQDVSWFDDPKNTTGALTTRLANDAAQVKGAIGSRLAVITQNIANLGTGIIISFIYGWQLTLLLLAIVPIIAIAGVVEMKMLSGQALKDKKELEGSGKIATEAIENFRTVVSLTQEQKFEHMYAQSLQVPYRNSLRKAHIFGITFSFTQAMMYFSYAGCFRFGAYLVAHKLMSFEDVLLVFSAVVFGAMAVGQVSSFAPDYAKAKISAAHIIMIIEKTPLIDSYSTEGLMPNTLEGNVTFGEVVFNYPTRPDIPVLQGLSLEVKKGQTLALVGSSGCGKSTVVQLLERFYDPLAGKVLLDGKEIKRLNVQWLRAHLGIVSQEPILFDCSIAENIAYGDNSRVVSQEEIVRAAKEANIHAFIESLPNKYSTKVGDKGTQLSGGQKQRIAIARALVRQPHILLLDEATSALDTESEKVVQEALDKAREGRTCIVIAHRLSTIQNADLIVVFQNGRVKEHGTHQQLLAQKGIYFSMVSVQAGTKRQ
CYP 3A4, sequence (P08684 whole entry, species assumed): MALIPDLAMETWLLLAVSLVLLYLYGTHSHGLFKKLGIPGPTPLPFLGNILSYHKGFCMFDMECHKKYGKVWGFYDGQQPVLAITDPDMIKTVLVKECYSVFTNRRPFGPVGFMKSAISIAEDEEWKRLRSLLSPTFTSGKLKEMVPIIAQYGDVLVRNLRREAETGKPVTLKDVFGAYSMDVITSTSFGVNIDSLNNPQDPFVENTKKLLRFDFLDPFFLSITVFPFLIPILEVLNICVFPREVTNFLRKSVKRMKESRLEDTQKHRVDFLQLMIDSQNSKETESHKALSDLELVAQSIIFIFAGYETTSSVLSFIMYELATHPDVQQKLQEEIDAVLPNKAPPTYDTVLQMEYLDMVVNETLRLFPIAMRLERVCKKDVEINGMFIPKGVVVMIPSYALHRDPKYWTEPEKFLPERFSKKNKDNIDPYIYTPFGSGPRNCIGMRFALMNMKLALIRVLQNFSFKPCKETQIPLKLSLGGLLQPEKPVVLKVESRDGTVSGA

Q: Which “inhibition of the p-glycoprotein (P-gp) pump” value [1] does the source give for CCN(CC)CCOc1ccc(Cc2ccccc2)cc1 [DPPE, N,N-diethyl-2-[4-(phenylmethyl)-phenoxy]ethanamine] here?
A: inhibits

Q: What about the “potentiation of cytotoxicity of a variety of antineoplastic drugs” value [2] of the same compound?
A: potentiates the cytotoxicity

Q: And the “substrate for CYP 3A4” value (CYP 3A4)?
A: potent substrate

Q: What about the “potentiation of cytotoxicity of a variety of antineoplastic drugs” value [3] of the same compound?
A: potentiates the cytotoxicity
